Measurements published in patent EP1234508A1, “Antiprotozoal methods, compositions and feedstuffs” (UNIVERSITEIT GENT, priority 2001, dated 2002).

Assay: Onset of egg laying and egg weight in hens treated via drinking water, Example 3
Type: in vivo
Method: The end of the development of the reproductive organ of laying hens starts on the age of 15 weeks and continues during 7 weeks. 10 laying hens were treated with L-arginine via drinking water from the age of 15 weeks till the age of 21 weeks and 10 laying hens were used as a control group. L-arginine was dosed at 15 mg per kg weight per day. L-arginine free base or a L-arginine salt such as hydrochloride may be given daily in a dose of about 5 - 200 mg up to 5 to about 1000 mg per kg bodyweight per day. Light schemes were taken into account: 8 hours light at the age of 15 and 16 weeks old, 9 hours at 17 weeks, 10 hours at 18 weeks, 11 hours at 19 weeks, 12 hours at 20 weeks and 13 hours at 21 weeks old. The treatment with L-arginine was started on the age of 15 weeks. After 40 days of treatment, 3 of 10 chickens treated with L-arginine started laying while one chicken of the control group started laying four days later (Fig. 5). It is unexpected that the onset of egg-laying is earlier than in the control group which is a commercially important aspect of the present invention. The average weight of the eggs (number of eggs ≥ 3) was above 50 g after 46 days in the treated group while in the control group after 54 days the average weight of at least 3 eggs was above 50 g (Fig 6). Again this improvement is unexpected and is of commercial value.

N=C(N)NCCCC(N)C(=O)O [L-arginine, 2-amino-5-guanidinovaleric acid]
chickens started laying (after 40 days of treatment, 15 mg per kg weight per day via drinking water from the age of 15 weeks, Fig. 5): 3 of 10
average weight of the eggs (number of eggs ≥ 3) (after 46 days in the treated group, 15 mg per kg weight per day via drinking water, Fig. 6): above 50 g
